# Assay results: patent US6537992B2, “Regulation of organic nitrate tolerance” (priority 2001, dated 2003)
# What was measured:
# [1] = Standing systolic blood pressure and heart rate in normal volunteers during transdermal GTN, with oral folate or placebo; format: in vivo, human; details: acute transdermal GTN 0.6 mg/hr, 3 hours after initial patch application, both placebo and folate groups
# Description: (§1) Normal volunteers (n=20) were randomized in a double bind, placebo-controlled fashion to either oral folate (5 mg per day) or placebo. After 1 week of this double-blind therapy, subjects returned to the laboratory. At that time, measures of standing systolic blood pressure and heart rate were recorded. Subsequently, measurements of forearm blood flow were made at rest and in response to sublingual nitroglycerin (0.6 mg). […] A Randomized Double-blind, Placebo-controlled Study, J Cardiovasc Pharm. 1999;34:645-659.
# (§2) Subsequently all subjects all received transdermal GTN (0.6 mg/hr). Standing heart rate and blood pressure responses were repeated 3 hours after initial patch application. Subjects were discharged from the laboratory with instructions to take transdermal GTN continuously for the next 5 to 7 days, changing the patch each day at 0800 hours. After 5 to 7 days, subjects returned to the laboratory where measures of standing systolic blood pressure and heart rate as well as forearm blood flow were repeated.
# [2] = Forearm blood flow by strain gauge plethysmography at rest and in response to sublingual nitroglycerin; format: in vivo, human; details: sublingual GTN 0.6 mg, before continuous GTN therapy, both groups
# Description: as §1, §2
structure (smiles),measurement,setting,value
"O=[N+]([O-])OCC(CO[N+](=O)[O-])O[N+](=O)[O-] [GTN, glyceryl trinitrate]",heart rate after acute administration,[1],significant increase
same,systolic blood pressure after acute administration,[1],significant fall
same,forearm blood flow after sublingual administration,[2],"similar, significant increase"
